Experimental findings from patent publication US11267823B2, “Substituted 1,2,3,3a,4,5,7,9,13,13a-decahydropyrido[1′,2′:4,5]pyrazino[1,2-a]pyrrolo[1,2-c]pyrimidines having HIV integrase inhibitory activity” (Shionogi & Co., Ltd., priority 2005, dated 2022) are described below.

The target in this test is HIV integrase (Human immunodeficiency virus type 1 group M subtype B (isolate HXB2) (HIV-1), UniProt P04585). In words: HIV integrase inhibitory activity assay (immunoplate strand transfer, OD405). Format: biochemical. The settings on record: for IC50: read-out: Integrase inhibitory activity (IC50, ng/ml) (converted). As to the method: The HIV integrase inhibitory activity was investigated based on the following assay method.
(1) Preparation of DNA Solution
By the same method as that described in Experimental Example 1 of WO 2004/024693, a substrate DNA solution (2 pmol/μl) and a target DNA solution (5 pmol/μl) were prepared. […] Each sequence of a substrate DNA and a target DNA is as described in the same Experimental Example.
(2) Measurement of Inhibition Rate (IC50 Value)
Streptavidin (manufactured by Vector Laboratories) was dissolved in a 0.1M carbonate buffer solution (composition: […] Na2CO3, 10 mM NaHCO3) to a concentration of 40 μg/ml, Each 50 μl of this solution was added to a well of an immunoplate (manufactured by NUNC), this is allowed to stand at 4° C. overnight to adsorb. Then, each well was washed with a phosphate buffer (composition: 13.7 mM NaCl, 0.27 mM KCl, 0.43 mM Na2HPO4, 0.14 mM KH2PO4) two times, and 300 μl of a phosphate buffer containing 1% skim milk to block it for 30 minutes. Further, each well was washed with a phosphate buffer two times, 50 μl of a substrate DNA solution (2 pmol/μl) was added to adsorb at room temperature for 30 minutes while shaking, and this was washed with a phosphate buffer two times and, then, distilled water once.
Then, to each well prepared as described above were added 12 μl of a buffer (composition: 150 mM MOPS (pH7.2), 75 mM MnCl2, 50 mM 2-mercaptoethanol, 25% glycerol, 500 μg/ml bovine serum albumin-fraction V), and 51 μl of a reaction solution prepared from 39 μl of distilled water. Then, 9 μl of an integrase solution (30 pmol) was added, and the mixture was mixed well. To a well as a negative control (NC) was added 9 μl of a diluting solution (composition: 20 mM MOPS (pH7.2), 400 mM potassium glutamate, 1 mM EDTA, 0.1% NP-40, 20% glycerol, 1 mM DTT, 4 M urea), and this was mixed well using a plate mixer. […]
C abs.: absorbance of well of compound
NC abs.: absorbance of NC
PC abs.: absorbance of PC

Turning to `O=C(NCc1ccc(F)cc1)c1cn2c(c(O)c1=O)C(=O)N1CCOC1C2` (stereo not drawn) [Example C-2, 5-Hydroxy-4,6-dioxo-2,3,4,6,9,9a-hexahydro-1-oxa-8a,8a-diaza-cyclopenta[b]naphthalene-7 carboxylic acid 4-fluorobenzylamide], the “Integrase inhibitory activity (IC50, ng/ml)” value came out at 3.3 ng/mL.
Regarding `CC(C)CN1CCCN2C(=O)c3c(O)c(=O)c(C(=O)NCc4ccc(F)cc4)cn3CC12` (stereo not drawn) [Example F-2, 5-Hydroxy-1-isobutyl-6,10-dioxo-1,2,3,4,6,9,9a,10-octahydro-1,4a,8a-triazaanthracene-7-carboxylic acid 4-fluorobenzylamide], the IC50 is 8.59 nM.
Still for that read-out and setting: the value for `CC(=O)N1CCCN2C(=O)c3c(O)c(=O)c(C(=O)NCc4ccc(F)cc4)cn3CC12` (stereo not drawn) [Example H-2, 1-Acetyl-5-hydroxy-6,10-dioxo-1,2,3,4,6,9,9a,10-octahydro-1,4a,8a-triaza-anthracene-7-carboxylic acid 4-fluoro-benzylamide] was 7.47 nM.
